Results published in US20260130847A1, “INGESTIBLE IN VIVO-ASSEMBLING DRUG RELEASE FORMULATIONS AND METHODS” (Massachusetts Institute of Technology, priority 2022, published 2026).
One block for each compound: values may come before it.

Experiments:
lactase = target: T1, lactase (Aspergillus oryzae, UniProt Q2UCU3); assay: Lactase activity after dithiol molecule treatment (ONPG); type: biochemical; conditions: 2.5, 5, or 10 mM, 37° C., 20 min
T1 construct: purchased MilliporeSigma G5160
T1 sequence (Q2UCU3 19-1005): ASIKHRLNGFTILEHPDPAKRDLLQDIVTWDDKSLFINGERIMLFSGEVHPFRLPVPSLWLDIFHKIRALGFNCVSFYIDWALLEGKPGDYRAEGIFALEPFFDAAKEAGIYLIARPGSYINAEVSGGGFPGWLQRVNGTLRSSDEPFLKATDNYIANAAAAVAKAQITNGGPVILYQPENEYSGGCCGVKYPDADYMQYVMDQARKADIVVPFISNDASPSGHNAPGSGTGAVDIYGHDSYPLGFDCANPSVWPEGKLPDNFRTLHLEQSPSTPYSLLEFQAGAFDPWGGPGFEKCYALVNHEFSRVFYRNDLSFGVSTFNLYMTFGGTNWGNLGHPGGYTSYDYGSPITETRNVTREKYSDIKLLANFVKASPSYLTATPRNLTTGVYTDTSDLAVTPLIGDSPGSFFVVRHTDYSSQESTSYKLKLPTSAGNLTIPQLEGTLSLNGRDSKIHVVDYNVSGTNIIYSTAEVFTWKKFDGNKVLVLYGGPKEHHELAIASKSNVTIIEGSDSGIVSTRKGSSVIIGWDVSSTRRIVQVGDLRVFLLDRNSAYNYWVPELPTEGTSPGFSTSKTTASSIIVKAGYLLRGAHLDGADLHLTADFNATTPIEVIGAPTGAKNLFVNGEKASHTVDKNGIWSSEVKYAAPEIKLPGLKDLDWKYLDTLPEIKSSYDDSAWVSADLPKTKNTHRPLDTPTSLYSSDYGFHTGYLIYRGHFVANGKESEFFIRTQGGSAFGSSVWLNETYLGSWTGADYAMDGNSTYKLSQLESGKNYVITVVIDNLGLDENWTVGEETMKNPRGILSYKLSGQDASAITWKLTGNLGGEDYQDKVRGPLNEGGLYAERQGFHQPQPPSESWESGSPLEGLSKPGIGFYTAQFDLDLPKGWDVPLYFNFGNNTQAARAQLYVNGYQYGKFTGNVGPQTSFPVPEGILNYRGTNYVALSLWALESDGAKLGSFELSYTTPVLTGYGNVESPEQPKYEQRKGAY
Experimental: Lactase (18 μg, 60 μL) was added to DMSA or PEG-dithiol to a final DMSA/PEG-dithiol concentration of 2.5, 5, or 10 mM. Treatments were incubated at 37° C. for 20 min. Lactase activity was assayed by adding 60 μL of 5 mM ONPG and incubation for 1 min at room temperature. After, 300 μL of 1 M Na2CO3 was added to stop the reaction, and the absorbance of the solution was read at λ=420 nm.

[1] = Encapsulated lumefantrine pharmacokinetics; type: in vivo; conditions: pigs, 960 mg lumefantrine
Experimental: All animal studies were performed only after MIT CAC review and approval and under veterinarian supervision. Pigs were dosed with the following treatments via endoscopy: free lumefantrine, lumefantrine encapsulated in alginate hydrogels, and lumefantrine encapsulated in LIFT hydrogels (n=3 each). All pigs were dosed with a total of 960 mg lumefantrine. For free lumefantrine, drug powder was weighed and placed across three gelatin capsules. For hydrogel formulations, lumefantrine powder was suspended in polymer solution (0.5% w/v alginate or 0.5% w/v alginate/5% 4-arm PEG-maleimide), mixed, and administered after crosslinker solution (200 mM CaCl2/10 mM DMSA). Blood was sampled via an installed ear catheter at the indicated time points, and lumefantrine area under the curve was calculated by the trapezoidal rule.
Plasma lumefantrine and desbutyl lumefantrine were separated via high pressure liquid chromatography (HPLC) and quantified with an Agilent 6495A electrospray ionization (ESI) triple quadrupole mass spectrometer (Agilent Technologies, Santa Clara, CA). Samples were introduced to the system with a 5 μL injection volume. Chromatography was performed on an Acquity BEH C18 column (2.1×50 mm, dP 1.8 μm, Waters, Milford, MA), heated to 50° C., with a binary mobile phase composed of 0.1% formic acid in water (v/v, A) and 5% tetrahydrofuran in methanol (v/v, B). […] Nozzle voltage was set to 1500 V and capillary voltage was set to 3500 V. Dynamic multiple reaction-monitoring was used to quantify analytes. Lumefantrine was monitored at transitions 528.16 to 510.00 m/z at 28 collision energy (CE), with a qualifier transition from 528.16 to 383.00 m/z (40 CE). Desbutyl lumefantrine was monitored at 472.1 to 454.1 m/z (20 CE) and qualified from 472.1 to 346 m/z (36 CE). Halofantrine was used as an internal standard and quantified with the 500.18 to 142.10 m/z transition (24 CE) and qualified with the 500.18 to 100.10 m/z transition. […]

cellulase = assay: Cellulase activity after acid exposure in vitro; type: biochemical; conditions: short incubations in gastric acid

Compound: O=C(O)C(S)C(S)C(=O)O (centres unmarked) [DMSA, dimercaptosuccinic acid]
lactase activity after exposure to dithiol compound (lactase): attenuated lactase activity

AUC ([1]; pig, other: via endoscopy, plasma, n=3, trapezoidal rule, read-out: area under the curve (AUC) of released drug): 14900 ng·h/mL
Cmax ([1]; pig, other: via endoscopy, plasma, n=3, read-out: maximum observed drug concentration (Cmax)): 901 ± 197 ng/mL
time of peak plasma drug concentration post-administration ([1]; n=3): 5 to 7 h
Compound: CCCCN(CCCC)CC(O)c1cc(Cl)cc2c1-c1ccc(Cl)cc1/C2=C/c1ccc(Cl)cc1 (centres unmarked) [free lumefantrine, Lumefantrine]

Compound: cellulase
activity of free cellulase (cellulase): significantly degraded enzyme activity
